We go through one molecule from US20080275105A1, “Selective Muscle Relaxant and Pharmaceutical Compositions” (UNIVERSIDADE FEDERAL DO RIO DE JANEIROUFRJ, priority 2004, published 2008).

In this assay the test system is rat papillary muscle. In words: Isometric tension (electrically stimulated twitches) in papillary muscle. Format: cell-based. Particulars: 10 to 100 μM; not significant. The method, then: Once the experiments have been carried out, the findings were subject to statistical analyses being expressed in average ±SEM as a percentage of the control value, and graphs were drawn up using the Sigma Plot 5.0 program to represent the data obtained. For the statistical analysis of the effects on the different muscle tissues, the difference was assessed among the concentrations of the same derivative, using the “t” Student test. In order to ascertain the difference among the derivatives, the one-way ANOVA test was used. The differences were considered as significant for p<0.05. The Cl50 was expressed as an average ±SEM of the values obtained for each experiment through non-linear regression based on the y=yo+ae^−bx equation.
After anesthesia with ethyl ether, male Wistar rats weighing between 240-280 grams were sacrificed through cervical dislocation. The heart was removed rapidly and the papillary muscle and the ventricular bundles were dissected in Tyrode's solution, whose composition is given in Table 2 below, at room temperature. The muscles were placed in vertical chambers with a capacity of 10 mL and fixed at their extremities: the lower portion to a hook located in the stimulation electrode fixation rod and the upper portion connected to a power transducer (Grass FT03) for recording the muscle twitches.
The muscles were stimulated electrically with supra-maximum voltage (50-60 V) through a stimulator (Grass S88) at a frequency of 1.0 Hz. The signals captured by the transducer were amplified (Cyberamp 380, Axon Instruments) and the isometric tension was digitized (Digidata 1322A, Axon Instruments) and stored on a computer. The screening and analysis of the experiment was handled through the Axoscope 8.0 program (Axon Instruments) (Sudo & cols., 2001). The chamber solution was bubbled continuously with a carbogenic mixture (95% O2/5% CO2) and kept at a temperature of 37° C.
After the stabilization of the muscle twitches (approximately 30 min) the records were carried out in the absence (control) and presence of rising concentrations (10 to 100 μM) of the different L294 analogs, diluted in DMSO. The records were carried out in pairs (two papillary and two ventricle) thus allowing the control experiments to be carried out in one of the pairs, meaning with rising quantities of DMSO equivalent to those used to dilute the substances. The reversibility of the effect of the substances was investigated at the end of each experiment, noting the recovery of the muscle twitches after bathing the preparation with Tyrode's solution.

For the molecule `CN(/N=C/c1cccs1)C(=O)c1ccc2c(c1)OCO2` [L785, 1,3-Benzodioxol-5-carboxylic acid, N-methyl-N′-[1-thiophene-2-yl-meth-(E)-ylidene]-hydrazide], the “maximum alterations to the papillary muscle twitches” value is given as 86.5±4.0 % of the control.
